Test results taken from patent US20220249454A1, “INHIBITORS OF MONOCARBOXYLATE TRANSPORTERS FOR CANCER IMMUNOTHERAPY” (NIROGY THERAPEUTICS, INC., priority 2021, published 2022).

System: panel of solid and haemotological tumor cell lines (e.g., Hs578t, SiHa, MDA-MB-231)
Assay: MTS cell proliferation assay (cytotoxicity)
Assay type: cell-based
Settings: Table 1 (Group 1), 72-96 hours, 10 mM lactate medium or RPMI 1640 medium, cell line not stated
Protocol: The anti-proliferation effect of MCT inhibition was investigated across a panel of solid and haemotological tumor cell lines. Cells were routinely cultured in their appropriate growth medium. On day 1, between 10,000-25,000 cells/well (e.g., Hs578t: 15,000 cells/well, SiHa: 10,000 cells/well, and MDA-MB-231: 25,000 cells/well) were plated into 96-well plates. 100 μL. of phosphate buffered saline solution was added to the external wells to prevent media evaporation. Plates were incubated in growth medium overnight at 37° C. in the presence of 5% CO2. On day 2, dry weight compound stocks were dissolved to a concentration of 10 mM in 100% DMSO. Compounds were further diluted in the assay medium; 10 mM lactate medium (without glucose, pyruvate, and glutamine) or RPMI 1640 medium (without pyruvate and glutamine) to generate a final dose range of 1 nM to 10 μM. Growth medium in the 96-well plate was replaced with the assay medium (10 mM lactate medium or RPMI medium or appropriate medium), and compounds were added to each well in the plate at different concentrations via serial dilution or pre-prepared solutions in assay medium. Plates were then incubated at 37° C. in the presence of 5% CO2 for a further 72-96 hours. On day 2-5, assay media was changed to 100 uL of DMEM/F12 and 20 μL of CellTiter 96 AQ MTS reagent was added to each well and the plate was returned to the incubator for 1-2 hours. MTS is bioreduced by NADPH or NADH produced by dehydrogenase enzymes in metabolically active cells into a coloured formazan product that is soluble in tissue culture medium. The amount of coloured formazan product is directly proportional to the number of living cells in culture. The absorbance of the plates was read on a Spectramax M5e plate reader using […] measurement wavelength. Dose response curves were plotted and IC50 values were calculated using GraphPad Prism. The IC50 value is equivalent to the concentration of compound that causes 50% inhibition of growth calculated from the compound treated signal to the vehicle treated signal.
Cytotoxicity of selected compounds is listed in Table 1, where IC50: A=<1 uM; B=1-10 uM; C=>10 uM; and NT=Not Tested.

Row | Compound | IC50
1 | CN(CC1CCOCC1)c1cc2oc(=O)c(C(=O)O)cc2s1 [Compound 1.008, 2-(methyl((tetrahydro-2H-pyran-4-yl)methyl)amino)-5-oxo-5H-thieno[3,2-b]pyran-6-carboxylic acid] | < 1 µM
2 | COc1ccc(CN(C)c2cc3oc(=O)c(C(=O)O)cc3s2)cc1 [Compound 1.021, 2-[(4-Methoxy-benzyl)-methyl-amino]-5-oxo-5H-thieno[3,2-b]pyran-6-carboxylic acid] | < 1 µM
3 | O=C(O)c1cc2sccc2oc1=O [Compound 1.029, 5-oxo-5H-thieno[3,2-b]pyran-6-carboxylic acid] | 1 to 10 µM
4 | COc1ccc(S(=O)(=O)N(C)c2cc3oc(=O)c(C(=O)O)cc3s2)cc1 [Compound 1.025, 2-[(4-Methoxy-benzenesulfonyl)-methyl-amino]-5-oxo-5H-thieno[3,2-b]pyran-6-carboxylic acid] | < 1 µM
5 | CN(C(=O)c1cccc(C(F)(F)F)c1)c1cc2oc(=O)c(C(=O)O)cc2s1 [Compound 1.015, 2-[Methyl-(3-trifluoromethyl-benzoyl)-amino]-5-oxo-5H-thieno[3,2-b]pyran-6-carboxylic acid] | < 1 µM
6 | CN(C(=O)c1ccc(C(F)(F)F)cc1)c1cc2oc(=O)c(C(=O)O)cc2s1 [Compound 1.020, 2-[Methyl-(4-trifluoromethyl-benzoyl)-amino]-5-oxo-5H-thieno[3,2-b]pyran-6-carboxylic acid] | < 1 µM
7 | CN(Cc1cc(C(F)(F)F)cc(C(F)(F)F)c1)c1cc2oc(=O)c(C(=O)O)cc2s1 [Compound 1.007, 2-((3,5-bis(trifluoromethyl)benzyl)(methyl)amino)-5-oxo-5H-thieno[3,2-b]pyran-6-carboxylic acid] | < 1 µM
8 | CN(Cc1cccs1)c1cc2oc(=O)c(C(=O)O)cc2s1 [Compound 1.014, 2-(methyl(thiophen-2-ylmethyl)amino)-5-oxo-5H-thieno[3,2-b]pyran-6-carboxylic acid] | < 1 µM
9 | CN(c1cc2oc(=O)c(C(=O)O)cc2s1)S(=O)(=O)c1ccc(C(F)(F)F)cc1 [Compound 1.027, 2-[Methyl-(4-trifluoromethyl-benzenesulfonyl)-amino]-5-oxo-5H-thieno[3,2-b]pyran-6-carboxylic acid] | < 1 µM
10 | COc1ccc(C(=O)N(C)c2cc3oc(=O)c(C(=O)O)cc3s2)cc1 [Compound 1.016, 2-[(4-Methoxy-benzoyl)-methyl-amino]-5-oxo-5H-thieno[3,2-b]pyran-6-carboxylic acid] | < 1 µM
11 | CN(C(=O)C1CCOCC1)c1cc2oc(=O)c(C(=O)O)cc2s1 [Compound 1.018, 2-[Methyl-(tetrahydro-pyran-4-carbonyl)-amino]-5-oxo-5H-thieno[3,2-b]pyran-6-carboxylic acid] | < 1 µM
12 | COc1ccccc1CN(C)c1cc2oc(=O)c(C(=O)O)cc2s1 [Compound 1.022, 2-[(2-Methoxy-benzyl)-methyl-amino]-5-oxo-5H-thieno[3,2-b]pyran-6-carboxylic acid] | < 1 µM
13 | CN(C(=O)c1ccc(F)cc1)c1cc2oc(=O)c(C(=O)O)cc2s1 [Compound 1.011, 2-(4-fluoro-N-methylbenzamido)-5-oxo-5H-thieno[3,2-b]pyran-6-carboxylic acid] | < 1 µM

Same assay, conditions: Table 2 (Group 2), 72-96 hours, 10 mM lactate medium or RPMI 1640 medium, cell line not stated

Row | Compound | IC50
14 | CCOc1cccc(NC(=O)N(C)c2cc3oc(=O)c(C(=O)O)cc3s2)c1 [Compound 2.009, 2-(3-(3-ethoxyphenyl)-1-methylureido)-5-oxo-5H-thieno[3,2-b]pyran-6-carboxylic acid] | < 1 µM
15 | CN(C(=O)c1ccc2cc(F)ccc2c1)c1cc2oc(=O)c(C(=O)O)cc2s1 [Compound 2.029, 2-(6-fluoro-N-methyl-2-naphthamido)-5-oxo-5H-thieno[3,2-b]pyran-6-carboxylic acid] | < 1 µM
16 | COc1ccc(NC(=O)N(C)c2cc3oc(=O)c(C(=O)O)cc3s2)c(OC)c1 [Compound 2.014, 2-(3-(2,4-dimethoxyphenyl)-1-methylureido)-5-oxo-5H-thieno[3,2-b]pyran-6-carboxylic acid] | < 1 µM
17 | Cc1ccc(NC(=O)N(C)c2cc3oc(=O)c(C(=O)O)cc3s2)cc1 [Compound 2.033, 2-(1-methyl-3-(p-tolyl)ureido)-5-oxo-5H-thieno[3,2-b]pyran-6-carboxylic acid] | < 1 µM
18 | COc1cnccc1NC(=O)N(C)c1cc2oc(=O)c(C(=O)O)cc2s1 [Compound 2.047, 2-(3-(3-methoxypyridin-4-yl)-1-methylureido)-5-oxo-5H-thieno[3,2-b]pyran-6-carboxylic acid] | < 1 µM
19 | CN(C(=O)Nc1nc(C(C)(C)C)cs1)c1cc2oc(=O)c(C(=O)O)cc2s1 [Compound 2.048, 2-(3-(4-(tert-butyl)thiazol-2-yl)-1-methylureido)-5-oxo-5H-thieno[3,2-b]pyran-6-carboxylic acid] | < 1 µM
20 | CN(C(=O)NC1CCCCC1)c1cc2oc(=O)c(C(=O)O)cc2s1 [Compound 2.007, 2-(3-cyclohexyl-1-methylureido)-5-oxo-5H-thieno[3,2-b]pyran-6-carboxylic acid] | < 1 µM
21 | COc1cc(NC(=O)N(C)c2cc3oc(=O)c(C(=O)O)cc3s2)ccc1F [Compound 2.016, 2-(3-(4-fluoro-3-methoxyphenyl)-1-methylureido)-5-oxo-5H-thieno[3,2-b]pyran-6-carboxylic acid] | < 1 µM
22 | CN(C(=O)Nc1cc(C(C)(C)C)on1)c1cc2oc(=O)c(C(=O)O)cc2s1 [Compound 2.055, 2-(3-(5-(tert-butyl)isoxazol-3-yl)-1-methylureido)-5-oxo-5H-thieno[3,2-b]pyran-6-carboxylic acid] | < 1 µM
23 | COc1ccc(OC)c(NC(=O)N(C)c2cc3oc(=O)c(C(=O)O)cc3s2)c1 [Compound 2.013, 2-(3-(2,5-dimethoxyphenyl)-1-methylureido)-5-oxo-5H-thieno[3,2-b]pyran-6-carboxylic acid] | < 1 µM
24 | COc1cc(F)ccc1NC(=O)N(C)c1cc2oc(=O)c(C(=O)O)cc2s1 [Compound 2.015, 2-(3-(4-fluoro-2-methoxyphenyl)-1-methylureido)-5-oxo-5H-thieno[3,2-b]pyran-6-carboxylic acid] | < 1 µM
25 | CN(C(=O)Nc1ccccc1Cl)c1cc2oc(=O)c(C(=O)O)cc2s1 [Compound 2.001, 2-(3-(2-chlorophenyl)-1-methylureido)-5-oxo-5H-thieno[3,2-b]pyran-6-carboxylic acid] | < 1 µM
26 | CN(C(=O)c1cccc(-c2ccccc2)c1)c1cc2oc(=O)c(C(=O)O)cc2s1 [Compound 2.030, 2-(N-methyl-[1,1′-biphenyl]-3-carboxamido)-5-oxo-5H-thieno[3,2-b]pyran-6-carboxylic acid] | < 1 µM
27 | CN(C(=O)N1CCCCC1)c1cc2oc(=O)c(C(=O)O)cc2s1 [Compound 2.045, 2-(N-methylpiperidine-1-carboxamido)-5-oxo-5H-thieno[3,2-b]pyran-6-carboxylic acid] | < 1 µM
28 | COc1ccc(NC(=O)N(C)c2cc3oc(=O)c(C(=O)O)cc3s2)cc1OC [Compound 2.006, 2-(3-(3,4-dimethoxyphenyl)-1-methylureido)-5-oxo-5H-thieno[3,2-b]pyran-6-carboxylic acid] | < 1 µM
29 | Cc1cccc(NC(=O)N(C)c2cc3oc(=O)c(C(=O)O)cc3s2)c1 [Compound 2.036, 2-(1-methyl-3-(m-tolyl)ureido)-5-oxo-5H-thieno[3,2-b]pyran-6-carboxylic acid] | < 1 µM
30 | COc1cccc(NC(=O)N(C)c2cc3oc(=O)c(C(=O)O)cc3s2)c1 [Compound 2.003, 2-(3-(3-methoxyphenyl)-1-methylureido)-5-oxo-5H-thieno[3,2-b]pyran-6-carboxylic acid] | < 1 µM
31 | COc1ccc(NC(=O)N(C)c2cc3oc(=O)c(C(=O)O)cc3s2)cc1C [Compound 2.026, 2-(3-(4-methoxy-3-methylphenyl)-1-methylureido)-5-oxo-5H-thieno[3,2-b]pyran-6-carboxylic acid] | < 1 µM
32 | CN(C(=O)Nc1cccc(F)c1)c1cc2oc(=O)c(C(=O)O)cc2s1 [Compound 2.025, 2-(3-(3-fluorophenyl)-1-methylureido)-5-oxo-5H-thieno[3,2-b]pyran-6-carboxylic acid] | < 1 µM
33 | CCOc1ccccc1NC(=O)N(C)c1cc2oc(=O)c(C(=O)O)cc2s1 [Compound 2.010, 2-(3-(2-ethoxyphenyl)-1-methylureido)-5-oxo-5H-thieno[3,2-b]pyran-6-carboxylic acid] | < 1 µM
34 | CN(C(=O)NC1CCOCC1)c1cc2oc(=O)c(C(=O)O)cc2s1 [Compound 2.043, 2-(1-methyl-3-(tetrahydro-2H-pyran-4-yl)ureido)-5-oxo-5H-thieno[3,2-b]pyran-6-carboxylic acid] | < 1 µM
